Here are results for 6 molecules from ChEMBL document CHEMBL5360594, “Astellolides R-W, Drimane-Type Sesquiterpenoids from an Aspergillus parasiticus Strain Associated with an Isopod” (J Nat Prod, 2023).

The subject of one series is A549. The series can be described thus: Cytotoxicity against human A549 cells assessed as inhibition of cell growth at 20 uM incubated for 48 hrs by MTT assay. Type of series: toxicity, cell-based. The note with it: a549, 48 h. A general note: Tetrazolium dyes change colour on reduction, which living cells bring about.
A further series concerns MCF7. As to the kind of experiment: Cytotoxicity against human MCF7 cells assessed as inhibition of cell growth at 20 uM incubated for 48 hrs by MTT assay. Type of series: toxicity, cell-based. To be noted: mcf7, 48 h.
The test system of the next series is HCT-116. As to the kind of experiment: Cytotoxicity against human HCT-116 cells assessed as inhibition of cell growth at 20 uM incubated for 48 hrs by MTT assay. To be noted: hct-116, 48 h. Type of series: toxicity, cell-based.
Another series deals with HepG2. The series can be described thus: Cytotoxicity against human HepG2 cells assessed as inhibition of cell growth at 20 uM incubated for 48 hrs by MTT assay. In kind it is toxicity, cell-based. To be noted: hepg2, 48 h.
For another series, the system named is HeLa. The series can be described thus: Cytotoxicity against human HeLa cells assessed as inhibition of cell growth at 20 uM incubated for 48 hrs by MTT assay. Type of series: toxicity, cell-based.
Another series has as its system K562. As to the kind of experiment: Cytotoxicity against human K562 cells assessed as inhibition of cell growth at 20 uM incubated for 48 hrs by MTT assay. To be noted: k562, 48 h. Type of series: toxicity, cell-based.
In a further series the test system is MKN-45. As to the kind of experiment: Cytotoxicity against human MKN-45 cells assessed as inhibition of cell growth at 20 uM incubated for 48 hrs by MTT assay. Type of series: toxicity, cell-based. The note with it: mkn-45, 48 h.
The next series relates to CAL-62. The series can be described thus: Cytotoxicity against human CAL-62 cells assessed as inhibition of cell growth at 20 uM incubated for 48 hrs by MTT assay. Type of series: toxicity, cell-based. To be noted: cal-62, 48 h.
The next series deals with 5637. The series can be described thus: Cytotoxicity against human 5637 cells assessed as inhibition of cell growth at 20 uM incubated for 48 hrs by MTT assay. Type of series: toxicity, cell-based. To be noted: human, 5637, 48 h.
Series [1] relates to RAW264.7. The series can be described thus: Cytotoxicity against mouse RAW264.7 cells assessed as inhibition of cell growth at 30 uM. Type of series: toxicity, cell-based. To be noted: raw264.7, 30 µM.
Series [2] has as its system RAW264.7. The series can be described thus: Antiinflammatory activity in mouse RAW264.7 cells assessed as inhibition of LPS-induced NO production preincubated with compound for 30 mins followed by LPS-stimulation and measured after 24 hrs by Griess assay. Type of series: functional, cell-based. On the technique in general: Griess reagent forms a coloured azo dye with nitrite.

By IC50 is commonly meant the concentration needed to halve the response being measured.

Regarding `C[C@]1(CO)CC[C@@H](O)[C@]2(C)C3=C(CC[C@@H]12)C(=O)OC3`, the Activity result in the series with A549, in the series with MCF7, in the series with HCT-116, in the series on HepG2, with HeLa and in the series with K562 was “Non-Toxic” throughout. The Activity entry in the series with MKN-45, in the series on CAL-62, in the series on 5637 and with RAW264.7 [1] was “Non-Toxic” throughout. In addition, in the series on RAW264.7 [2], the IC50 was found to be 6.1 µM.

Turning to `CC(=O)OC[C@@]1(C)CCC[C@]2(COC(C)=O)C3=C(C[C@@H](OC(=O)c4cccnc4)[C@@H]12)C(=O)OC3`, the Activity result in the series on A549, in the series with MCF7, in the series on HCT-116, in the series on HepG2, with HeLa and in the series with K562 was “Non-Toxic” each time. The Activity result in the series with MKN-45, with CAL-62, with 5637 and with RAW264.7 [1] was “Non-Toxic” each time. For the same molecule, the concentration for half-maximal inhibition (IC50) in the series on RAW264.7 [2] was found to be 19 µM.

With `CC12CCCC34C5=C(CC(O[C@@H]3OC1)C24)C(=O)OC5`, the Activity entry in the series with A549, in the series on MCF7, in the series on HCT-116, with HepG2, in the series on HeLa and with K562 was “Non-Toxic” in each case. Further, the Activity result with MKN-45, in the series on CAL-62, with 5637 and with RAW264.7 [1] was “Non-Toxic” each time. The IC50 in the series with RAW264.7 [2] came out at 22 µM.

For the molecule `C[C@@H]1C[C@H]2[C@@H]3CCC4=CC(=O)C=C[C@]4(C)[C@@]3(F)[C@@H](O)C[C@]2(C)[C@@]1(O)C(=O)CO` [DEXAMETHASONE], the IC50 in the series on RAW264.7 [2] came to 2.6 µM.

Regarding `C[C@]1(CO)CCC[C@]2(CO)C3=C(CC[C@@H]12)C(=O)OC3`, the Activity entry in the series on A549, in the series with MCF7, in the series on HCT-116, in the series with HepG2, in the series with HeLa and in the series with K562 was “Non-Toxic” each time. For the same molecule, the Activity entry in the series with MKN-45, in the series with CAL-62, in the series with 5637 and in the series with RAW264.7 [1] was “Non-Toxic” in each case. Further, the IC50 in the series on RAW264.7 [2] amounted to 21 µM.

With `CC(=O)OC[C@]12CCCC(C)(C)[C@@H]1[C@H](OC(=O)c1ccccc1)CC1=C2COC1=O`, the Activity result with A549, in the series with MCF7, in the series with HCT-116, in the series on HepG2, in the series on HeLa and in the series on K562 was “Non-Toxic” throughout. The Activity entry in the series on MKN-45, with CAL-62, in the series with 5637 and in the series with RAW264.7 [1] was “Non-Toxic” in each case. In addition, the IC50 in the series on RAW264.7 [2] worked out at 6.8 µM.
